Data reported in patent US12497411B2, “Muscarinic acetylcholine receptor subtype 4 antagonists in the treatment of anemia” (COLD SPRING HARBOR LABORATORY, priority 2019, dated 2025).
pKi: −log10 of the molar value. Structures can show the parent of a compound that is named as a salt.

How the values were obtained:
[1] = target: T1, human recombinant CHRM1 receptor (Homo sapiens, UniProt P11229); assay: Radioligand binding assay, CHRM1; conditions: [3H]pirenzepine (2 nM), CHO cell membranes, 60 minutes at room temperature; read-out: Ki M1
T1 construct: expressed in transfected cells; host or cells: CHO cells (membranes)
T1 sequence (P11229 1-460): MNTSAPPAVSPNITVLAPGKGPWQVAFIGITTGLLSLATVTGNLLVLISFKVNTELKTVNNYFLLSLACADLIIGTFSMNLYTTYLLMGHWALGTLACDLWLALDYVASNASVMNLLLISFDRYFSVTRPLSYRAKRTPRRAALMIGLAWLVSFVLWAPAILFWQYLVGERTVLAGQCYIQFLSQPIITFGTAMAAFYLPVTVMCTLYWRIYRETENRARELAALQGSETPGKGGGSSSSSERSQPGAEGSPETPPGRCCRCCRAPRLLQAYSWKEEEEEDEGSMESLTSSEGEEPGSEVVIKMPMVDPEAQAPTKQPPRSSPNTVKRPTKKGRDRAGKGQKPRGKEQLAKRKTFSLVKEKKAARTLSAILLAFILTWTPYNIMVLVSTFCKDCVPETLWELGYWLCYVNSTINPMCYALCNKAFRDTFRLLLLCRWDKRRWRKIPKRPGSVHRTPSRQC
Protocol: (§1) PD102807 and Compounds A-K at concentrations of 1×10^−9 M, 1×10^−8 M, 1×10^−7 M, 1×10^−6 M, and 1×10^−5 M were tested in standard binding assays with radioligands and cell membranes with receptors. Compound binding was calculated as a percent inhibition of the binding of a radioactively labeled ligand specific for each target, and the Ki values were determined. For CHRM1, the binding assay was performed using [^3H]pirenzepine (2 nM) as a radioligand and membranes of CHO cells with human recombinant CHRM1 receptor. The incubation time was 60 minutes at room temperature. For CHRM2, the binding assay was performed using [^3H]AF-DX 384 (2 nM) as a radioligand and membranes of CHO cells with human recombinant CHRM2 receptor. The incubation time was also 60 minutes at room temperature. For CHRM3, the binding assay was performed using [^3H]4-DAMP (0.2 nM) as a radioligand and membranes of CHO cells with human recombinant CHRM3 receptor. The incubation time was also 60 minutes at room temperature. For CHRM4, the binding assay was performed using [^3H]4-DAMP (0.2 nM) as a radioligand and membranes of CHO cells with human recombinant CHRM4 receptor. The incubation time was also 60 minutes at room temperature. For CHRM5, the binding assay was performed using [^3H]4-DAMP (0.3 nM) as a radioligand and membranes of CHO cells with human recombinant CHRM5 receptor. The incubation time was also 60 minutes at room temperature.

CHRM4 = target: T2, CHRM4 (Homo sapiens, UniProt P08173); assay: Radioligand binding assay, CHRM4; design: expressed in transfected cells; host or cells: CHO cells (membranes); conditions: [3H]4-DAMP (0.2 nM), CHO cell membranes, 60 minutes at room temperature; read-out: Ki M4
T2 sequence (P08173 1-479): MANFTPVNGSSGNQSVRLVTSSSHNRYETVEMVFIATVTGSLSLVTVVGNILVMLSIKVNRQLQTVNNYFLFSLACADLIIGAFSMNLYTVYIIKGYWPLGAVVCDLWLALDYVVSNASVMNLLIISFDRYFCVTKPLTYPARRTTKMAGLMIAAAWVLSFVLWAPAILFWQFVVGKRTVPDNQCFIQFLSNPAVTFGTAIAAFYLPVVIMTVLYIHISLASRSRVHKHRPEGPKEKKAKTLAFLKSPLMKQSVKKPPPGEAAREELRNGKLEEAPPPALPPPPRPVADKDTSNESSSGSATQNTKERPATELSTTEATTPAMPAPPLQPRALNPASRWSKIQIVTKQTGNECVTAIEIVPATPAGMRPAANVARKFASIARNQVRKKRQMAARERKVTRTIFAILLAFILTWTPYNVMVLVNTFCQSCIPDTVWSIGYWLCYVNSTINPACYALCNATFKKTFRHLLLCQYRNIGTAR
Protocol: as §1

[2] = target: T3, human recombinant CHRM2 receptor (Homo sapiens, UniProt P08172); assay: Radioligand binding assay, CHRM2; conditions: [3H]AF-DX 384 (2 nM), CHO cell membranes, 60 minutes at room temperature; read-out: Ki M2
T3 construct: expressed in transfected cells; host or cells: CHO cells (membranes)
T3 sequence (P08172 1-466): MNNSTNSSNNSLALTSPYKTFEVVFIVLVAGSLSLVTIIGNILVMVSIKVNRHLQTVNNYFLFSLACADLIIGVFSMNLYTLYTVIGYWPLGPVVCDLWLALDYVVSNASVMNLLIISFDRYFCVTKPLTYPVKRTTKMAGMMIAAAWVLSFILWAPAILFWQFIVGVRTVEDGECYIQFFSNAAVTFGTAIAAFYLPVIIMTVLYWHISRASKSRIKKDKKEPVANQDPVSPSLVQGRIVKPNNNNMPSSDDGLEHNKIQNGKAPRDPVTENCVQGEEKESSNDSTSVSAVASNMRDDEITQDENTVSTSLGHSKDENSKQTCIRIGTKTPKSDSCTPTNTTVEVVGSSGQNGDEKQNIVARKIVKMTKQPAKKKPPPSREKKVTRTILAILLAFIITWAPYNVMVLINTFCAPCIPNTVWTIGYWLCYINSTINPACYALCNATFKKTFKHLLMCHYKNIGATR
Protocol: as §1

[3] = target: T4, human recombinant CHRM3 receptor (Homo sapiens, UniProt P20309); assay: Radioligand binding assay, CHRM3; conditions: [3H]4-DAMP (0.2 nM), CHO cell membranes, 60 minutes at room temperature; read-out: Ki M3
T4 construct: expressed in transfected cells; host or cells: CHO cells (membranes)
Protocol: as §1

Mouse BFU-Es = assay: Primary mouse BFU-E culture assay (cell expansion); assay type: cell-based; conditions: for potency in stimulating BFU-E expansion: mouse primary cell BFU-E culture assay
Protocol: Primary mouse BFU-Es were isolated from mouse embryonic day 14.5 (E14.5) fetal liver and cultured in StemSpan serum-free expansion medium, and the numbers of cells formed were counted during culture. BFU-Es were infected with either viruses encoding control shRNA or viruses encoding shRNAs targeting Chrm4, and numbers of GFP+ cells formed during culture were counted. DMSO or 25 mg/kg oxyphenonium bromide was intraperitoneally injected into the hemolysis mouse model, Mx1-cre Srsf2 P95H/WT MDS mouse model, and aging mouse model. Complete blood count (CBC) was performed after compound injection. CREB ChIP-Seq was performed on BFU-Es after culture with 100 μM oxyphenonium bromide for 45 minutes. RNA-Seq was performed in BFU-Es after being cultured with DMSO or oxyphenonium bromide for 3 days.
BFU-Es were isolated from mouse embryonic day 14.5 fetal liver using fluorescence-activated cell sorting (FACS) method previously described (Flygare et al., Blood 117, 3435-3444 (2011)). BFU-Es were cultured in StemSpan SFEM II medium containing rmSCF (100 ng/ml), EPO (2 U/ml), rmIGF-1 (40 ng/ml), dexamethasone (1 nmol/ml or 10 nmol/ml), oxyphenonium bromide ([…]), and orphenadrine citrate (1 μmol/ml).
BFU-Es were isolated from mouse embryonic day 14.5 fetal liver using fluorescence-activated cell sorting (FACS) method. BFU-Es were cultured in StemSpan SFEM II medium containing rmSCF (100 ng/ml), EPO (2 U/ml), rmIGF-1 (40 ng/ml), dexamethasone (1 nM), together with either DMSO, PCS1055 (5 nM), or PD102807 (3 nM). Numbers of cell formed were counted during in vitro culture.
FIGS. 7 and 8 show the results of the primary BFU-E culture assay. […] Highly purified BFU-Es were isolated as lin-Ter-119-CD16/CD32-Sca-1-CD41-c-Kit+CD71/Cd24a^10% low population using the fluorescence-activated cell sorting (FACS) method. BFU-Es were cultured in medium containing rmSCF, EPO, and rmIGF-1, in the presence of PD102807 or Compounds A-K at indicated concentrations.

[4] = test system: PHZ induced hemolytic anemia in C57bl/6 mice; assay: PHZ induced hemolytic anemia mouse model, CBC; assay type: in vivo; conditions: subcutaneous injection; B 1.5, 3 or 5 mg/kg; I 0.5, 0.7 or 1 mg/kg; 60 mg/kg phenylhydrazine
Protocol: Animal experiments were conducted in the Cold Spring Harbor Laboratory Animal Shared Resource in accordance with Institutional Animal Care and Use Committee-approved procedures. 4-6 weeks old C57bl/6 mice, purchased from Jackson Laboratory and randomly distributed into compound and control treatment groups, were given through oral delivery of PCS1055 (50 mg/kg or 100 mg/kg) twice per day or PD102807 (50 mg/kg or 100 mg/kg) once per day everyday for 3 days. On day 3, mice were intraperitoneally injected with 60 mg/kg PHZ. Mice were then given through oral delivery of PD102807 (50 mg/kg or 100 mg/kg) once per day every day for 2 days. Peripheral blood samples were collected retro-orbitally on day 6 using heparinized capillary tubes in blood collection tubes with K2-EDTA. CBC was performed using Hemavet 950. […] C57bl/6 mice were injected with 60 mg/kg phenylhydrazine to induce hemolysis. Mice were delivered with either vehicle control or Compound A or B (30 mg/kg or 100 mg/kg). Peripheral blood samples were collected retro-orbitally using heparinized capillary tubes into blood collection tubes with K2-EDTA. Complete blood counting was performed using Hemavet 950. Hematocrit (HCT), red blood cell (RBC) and hemoglobin (Hb) values are shown. […] C57bl/6 mice were injected with 60 mg/kg phenylhydrazine to induce hemolysis. Mice were delivered with subcutaneous injection with either vehicle control or Compound B (1.5 mg/kg, 3 mg/kg, or 5 mg/kg) or I (0.5 mg/kg, 0.7 mg/kg, or 1 mg/kg). Peripheral blood samples were collected retro-orbitally using heparinized capillary tubes into blood collection tubes with K2-EDTA. Complete blood counting was performed using Hemavet 950. Hematocrit (HCT), red blood cell (RBC) and hemoglobin (Hb) values are shown.

[5] = target: T5, human recombinant CHRM5 receptor (Homo sapiens, UniProt P08912); assay: Radioligand binding assay, CHRM5; conditions: [3H]4-DAMP (0.3 nM), CHO cell membranes, 60 minutes at room temperature; read-out: Ki M5
T5 construct: expressed in transfected cells; host or cells: CHO cells (membranes)
T5 sequence (P08912 1-532): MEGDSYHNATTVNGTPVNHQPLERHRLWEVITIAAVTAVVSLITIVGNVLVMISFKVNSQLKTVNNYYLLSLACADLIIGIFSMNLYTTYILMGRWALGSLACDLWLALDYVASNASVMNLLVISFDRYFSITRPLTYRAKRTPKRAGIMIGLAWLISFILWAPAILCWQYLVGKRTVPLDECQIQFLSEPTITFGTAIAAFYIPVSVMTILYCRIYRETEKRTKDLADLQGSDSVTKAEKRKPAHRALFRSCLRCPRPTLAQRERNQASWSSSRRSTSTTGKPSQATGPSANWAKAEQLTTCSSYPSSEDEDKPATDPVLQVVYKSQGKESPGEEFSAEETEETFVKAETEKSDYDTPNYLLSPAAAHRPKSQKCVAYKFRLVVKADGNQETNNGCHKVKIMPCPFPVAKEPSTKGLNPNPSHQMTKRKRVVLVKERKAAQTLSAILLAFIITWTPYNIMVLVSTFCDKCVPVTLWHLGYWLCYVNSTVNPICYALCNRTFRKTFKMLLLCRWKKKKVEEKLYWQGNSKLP
Protocol: as §1

T4 sequence (P20309 whole entry): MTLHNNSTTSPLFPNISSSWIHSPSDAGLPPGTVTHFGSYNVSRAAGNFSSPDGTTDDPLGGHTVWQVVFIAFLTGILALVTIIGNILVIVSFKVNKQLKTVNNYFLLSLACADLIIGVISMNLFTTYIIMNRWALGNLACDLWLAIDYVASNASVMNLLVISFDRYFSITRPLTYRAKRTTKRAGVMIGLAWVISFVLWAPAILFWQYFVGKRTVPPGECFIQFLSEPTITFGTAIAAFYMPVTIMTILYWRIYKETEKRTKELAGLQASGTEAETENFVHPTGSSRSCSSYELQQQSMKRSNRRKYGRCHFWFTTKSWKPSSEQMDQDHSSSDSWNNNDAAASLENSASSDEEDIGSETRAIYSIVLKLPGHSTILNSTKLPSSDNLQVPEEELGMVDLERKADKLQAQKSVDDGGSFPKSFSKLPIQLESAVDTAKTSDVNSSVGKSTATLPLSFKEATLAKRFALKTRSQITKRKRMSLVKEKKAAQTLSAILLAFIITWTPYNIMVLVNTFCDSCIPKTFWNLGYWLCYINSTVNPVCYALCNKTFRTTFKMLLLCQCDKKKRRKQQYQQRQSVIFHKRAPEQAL

Row | Compound | pKi [1] | pKi (CHRM4) | pKi [2] | pKi [3] | potency in stimulating BFU-E expansion (Mouse BFU-Es) | treatment of anemia in vivo (HCT, RBC, Hb) [4] | fold cell expansion (Mouse BFU-Es; 5 μM KT5720 (with 3 nM PD102807), day 9, vs untreated) | BFU-E expansion (test of GPCR agonists and antagonists) (Mouse BFU-Es; mouse BFU-E culture) | pKi [5]
1 | CCOC(=O)c1c(C)[nH]c2ccc(OC)c(CN3CCc4cc(OC)ccc4C3)c12 [Compound E, ethyl 5-methoxy-4-((6-methoxy-3,4-dihydroisoquinolin-2(1H)-yl)methyl)-2-methyl-1H-indole-3-carboxylate] | 5.07 | 5.82 | 5.59 |  |  |  |  |  | 
2 | CCOC(=O)c1c(C)n(C)c2ccc(OC)c(CN3CCc4cc(OC)ccc4C3)c12 [F] |  | 6.02 | 5.41 | 5.41 | slightly less potent than the others |  |  |  | 
3 | CCOC(=O)c1c(C)n(C)c2ccc3c(c12)CN1CCc2cc(OC)ccc2C1O3 (centres unmarked) [Compound C, Ethyl 9-methoxy-2,3-dimethyl-3,6a,11,14-tetrahydro-12H-indolo[4′,5′:5,6][1,3]oxazino[2,3-a]isoquinoline-1-carboxylate] | 5.28 | 8.34 | 6.07 | 6.22 |  |  |  |  | 
4 | CCOC(=O)c1c(C)[nH]c2ccc3c(c12)C[N+]1(C)CCc2cc(OC)ccc2C1O3 (single isomer, unassigned) [Compound B, 1-(ethoxycarbonyl)-9-methoxy-2,13-dimethyl-3,6a,11,12,13,14-hexahydroindolo[4′,5′:5,6][1,3]oxazino[2,3-a]isoquinolin-13-ium Iodide] |  | 5.37 |  |  | slightly less potent than the others | treat anemia in vivo |  |  | 
5 | CCCCCCOC(=O)[C@]1(O)C[C@@H]2O[C@@]1(C)n1c3ccccc3c3c4c(c5c6ccccc6n2c5c31)C(=O)NC4 [KT5720] |  |  |  |  |  |  | significantly reduced fold cell expansion |  | 
6 | CCOC(=O)c1c(C)n(C)c2cc(CN3CCc4cc(OC)ccc4C3)c(OC)cc12 [J] | 5.89 | 8.05 | 6.12 | 5.77 |  |  |  |  | 
7 | Cc1ccccc1C(OCCN(C)C)c1ccccc1 (centres unmarked) [orphenadrine citrate] |  |  |  |  |  |  |  | triggered BFU-E expansion | 
8 | CCOC(=O)c1c(C)n(C)c2cc(C[N+]3(C)CCc4cc(OC)ccc4C3)c(OC)cc12 (centres unmarked) [Compound K] | 7.27 | 7.27 | 7.00 | 6.40 |  |  |  |  | 6.01
9 | CCOC(=O)c1c(C)n(C)c2ccc(O)c(CN3CCc4cc(OC)ccc4C3)c12 [Compound D, Ethyl 5-hydroxy-4-((6-methoxy-3,4-dihydroisoquinolin-2(1H)-yl)methyl)-1,2-dimethyl-1H-indole-3-carboxylate] | 6.55 | 7.38 | 7.23 | 6.13 |  |  |  |  | 
